Data as given in patent US8314092B2, “Substituted [(5H-pyrrolo[2,1-c][1,4]benzodiazepin-11-yl)piperazin-1-yl]-2,2-dimethylpropanoic acid compounds as dual activity H1 inverse agonists/5-HT2A antagonists” (Eli Lilly and Company, priority 2011, dated 2012).
Counter-ions that a name gives are not always drawn.

Tests used:
[1] = target: Dopamine D3 (Homo sapiens, UniProt P35462); test: Dopamine D3 binding
Description: (§1) Further, the compounds of the invention may be tested in binding assays and functional activity assays by well known methods for other physiologically important receptors such as, but not limited to, the hERG channel, other serotonin receptors (specifically 5-HT1A, 5-HT1B, 5-HT1D, 5-HT1E, 5-HT1F receptors, lack of agonist activity at 5-HT2B receptors, 5-HT2C, 5-HT4, 5-HTS, 5-HT6, and 5-HT7 receptors), muscarinic receptors, dopaminergic receptors (specifically D1, D2, and D3), GABAA receptors, adrenergic receptors and monoamine transporters. Certain exemplified compounds are tested at these receptors and are shown to lack significant activity.

[2] = target: 5-HT1E (Homo sapiens, UniProt P28566); test: 5-HT1E binding
Sequence of 5-HT1E (P28566 whole entry, species assumed): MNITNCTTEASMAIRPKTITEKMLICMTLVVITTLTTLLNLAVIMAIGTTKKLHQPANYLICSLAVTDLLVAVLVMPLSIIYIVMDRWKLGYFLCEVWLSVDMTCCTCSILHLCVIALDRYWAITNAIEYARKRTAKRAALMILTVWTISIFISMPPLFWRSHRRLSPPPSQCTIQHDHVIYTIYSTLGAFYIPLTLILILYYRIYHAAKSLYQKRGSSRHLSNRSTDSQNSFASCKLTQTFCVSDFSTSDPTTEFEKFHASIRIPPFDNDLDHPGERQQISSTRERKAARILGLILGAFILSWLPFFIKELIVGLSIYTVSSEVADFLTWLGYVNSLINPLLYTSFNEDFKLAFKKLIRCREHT
Description: as §1

[3] = target: 5-HT6 (Homo sapiens, UniProt P50406); test: 5-HT6 binding
Sequence of 5-HT6 (P50406 whole entry, species assumed): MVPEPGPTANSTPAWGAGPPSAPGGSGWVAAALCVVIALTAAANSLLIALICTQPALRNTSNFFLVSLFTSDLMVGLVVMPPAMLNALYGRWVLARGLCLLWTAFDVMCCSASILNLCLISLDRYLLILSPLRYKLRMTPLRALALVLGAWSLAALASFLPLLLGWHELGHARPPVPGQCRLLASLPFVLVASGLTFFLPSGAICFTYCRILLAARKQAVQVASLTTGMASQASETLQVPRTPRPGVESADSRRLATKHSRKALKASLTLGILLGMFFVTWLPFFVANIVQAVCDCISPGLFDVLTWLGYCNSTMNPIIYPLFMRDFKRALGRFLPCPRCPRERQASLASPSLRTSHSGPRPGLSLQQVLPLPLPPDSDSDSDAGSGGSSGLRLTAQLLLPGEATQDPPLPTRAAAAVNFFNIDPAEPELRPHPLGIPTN
Description: as §1

[4] = target: Adrenergic alpha2A (Homo sapiens, UniProt P08913); test: Adrenergic alpha2A binding
Sequence of Adrenergic alpha2A (P08913 whole entry): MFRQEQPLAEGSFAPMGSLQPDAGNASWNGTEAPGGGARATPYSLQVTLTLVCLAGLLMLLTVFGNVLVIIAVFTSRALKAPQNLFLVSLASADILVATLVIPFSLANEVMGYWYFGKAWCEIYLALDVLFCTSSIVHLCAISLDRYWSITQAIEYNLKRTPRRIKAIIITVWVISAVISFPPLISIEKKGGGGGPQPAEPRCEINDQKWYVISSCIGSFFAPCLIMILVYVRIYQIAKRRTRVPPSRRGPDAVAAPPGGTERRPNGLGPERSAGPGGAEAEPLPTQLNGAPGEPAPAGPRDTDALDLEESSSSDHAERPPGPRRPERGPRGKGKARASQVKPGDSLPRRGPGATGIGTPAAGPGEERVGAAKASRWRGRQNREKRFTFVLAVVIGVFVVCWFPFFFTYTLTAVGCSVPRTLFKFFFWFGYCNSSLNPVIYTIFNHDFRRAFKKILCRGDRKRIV
Description: as §1

[5] = target: Adrenergic alpha2B (Homo sapiens, UniProt P18089); test: Adrenergic alpha2B binding
Sequence of Adrenergic alpha2B (P18089 whole entry): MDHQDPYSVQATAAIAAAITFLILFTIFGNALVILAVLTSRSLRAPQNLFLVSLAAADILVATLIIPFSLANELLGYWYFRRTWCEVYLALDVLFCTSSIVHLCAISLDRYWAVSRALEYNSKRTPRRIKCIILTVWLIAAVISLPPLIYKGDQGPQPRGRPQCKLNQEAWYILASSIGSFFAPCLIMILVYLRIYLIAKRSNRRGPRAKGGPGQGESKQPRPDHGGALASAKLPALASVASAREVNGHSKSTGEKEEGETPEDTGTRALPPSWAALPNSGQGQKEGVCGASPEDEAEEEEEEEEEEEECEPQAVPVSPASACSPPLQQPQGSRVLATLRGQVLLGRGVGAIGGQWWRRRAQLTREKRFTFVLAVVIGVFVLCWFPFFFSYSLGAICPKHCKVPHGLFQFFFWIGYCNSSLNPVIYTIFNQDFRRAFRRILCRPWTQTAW
Description: as §1

[6] = target: T1, 5-HT2A Receptor (Rattus norvegicus, UniProt P14842); test: 5-HT2A receptor occupancy in vivo (MDL 100907 tracer); conditions: oral gavage, 1 hour before tracer, read-out: 5-HT2A receptor occupancy EC50
T1 construct: samples of the frontal cortex and cerebellum are removed; from tissue; host or cells: living rat; frontal cortex (cerebellum as null region)
T1 sequence (P14842 whole entry): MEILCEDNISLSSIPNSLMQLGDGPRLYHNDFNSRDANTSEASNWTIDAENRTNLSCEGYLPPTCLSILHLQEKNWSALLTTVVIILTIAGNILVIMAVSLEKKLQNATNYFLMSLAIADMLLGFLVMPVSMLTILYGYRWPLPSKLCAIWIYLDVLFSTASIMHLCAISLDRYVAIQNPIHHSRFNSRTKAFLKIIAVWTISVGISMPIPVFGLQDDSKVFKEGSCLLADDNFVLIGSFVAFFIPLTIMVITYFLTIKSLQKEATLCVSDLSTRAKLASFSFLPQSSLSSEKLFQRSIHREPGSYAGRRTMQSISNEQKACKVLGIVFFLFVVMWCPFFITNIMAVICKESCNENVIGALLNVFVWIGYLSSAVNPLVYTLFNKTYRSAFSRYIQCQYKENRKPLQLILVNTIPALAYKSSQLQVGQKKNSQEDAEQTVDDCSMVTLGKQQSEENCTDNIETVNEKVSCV
Description: Briefly, male Sprague-Dawley rats (Harlan Sprague-Dawley, Indianapolis, Ind.) weighing approximately 230-280 grams are given ad lib access to food and water until the beginning of the 3-hour experimental protocol. 1 mg/kg ketanserin (non-selective 5-HT2A antagonist) is used as a positive control to establish assay validity. Test compounds or control are administered by oral gavage in a vehicle comprised of 20% hydroxypropyl beta-cyclodextrin. MDL 100907 ((R) -(+)-α-(2,3-Dimethoxyphenyl)-1-[2-(4-fluorophenyl)ethyl]-4-piperidinemethanol), a selective 5-HT2A antagonist, is used as a tracer. […] It is at the time of tracer administration that receptor occupancy (RO) is considered to be measured. […] The level of MDL 100907 tracer is measured in each cortical and cerebellar sample. RO is calculated using the well-established ratio method which employs a region of high receptor density representative of total binding (frontal cortex) normalized by an area without or with very low levels of receptor (cerebellum). […]
MDL 100907 Analysis: Cortex and cerebellar samples are weighed and placed in conical centrifuge tubes on ice. […] Standards are prepared by adding known quantities of analyte to brain tissue samples from non-treated rats and processing as described above. […]

[7] = target: human recombinant H1 receptor (Homo sapiens, UniProt P35367); test: H1 competition binding assay ([3H]-Pyrilamine SPA); design: expressed in transfected cells
Sequence of human recombinant H1 receptor (P35367 whole entry): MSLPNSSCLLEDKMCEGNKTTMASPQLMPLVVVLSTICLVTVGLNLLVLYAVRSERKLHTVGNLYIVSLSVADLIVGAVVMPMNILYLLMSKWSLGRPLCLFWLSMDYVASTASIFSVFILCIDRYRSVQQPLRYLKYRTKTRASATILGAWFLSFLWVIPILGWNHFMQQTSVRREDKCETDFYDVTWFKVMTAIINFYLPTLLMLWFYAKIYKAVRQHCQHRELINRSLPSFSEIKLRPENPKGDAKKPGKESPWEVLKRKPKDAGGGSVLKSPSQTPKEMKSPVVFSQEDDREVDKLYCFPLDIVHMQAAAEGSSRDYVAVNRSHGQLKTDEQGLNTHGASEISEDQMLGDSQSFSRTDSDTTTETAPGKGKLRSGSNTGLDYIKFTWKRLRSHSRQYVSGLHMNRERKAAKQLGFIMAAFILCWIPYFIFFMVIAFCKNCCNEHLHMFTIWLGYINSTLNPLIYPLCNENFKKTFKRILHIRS
Description: [^3H]-Pyrilamine binding experiments are carried out in SPA (scintillation proximity assay) 96-well format. Membranes used in this assay are prepared from HEK-293 cells stably expressing recombinant H1 receptor (human). The incubation is initiated by the addition of a mixture of WGA PVT SPA beads (1 mg/well, Perkin Elmer (MA, USA) RPNQ0001) and 3 μg membranes to assay buffer (67 mM Tris; pH 7.6) containing 3.5 nM [^3H]-Pyrilamine and varying concentrations of the test compound (10 point concentration response curves). Non-specific binding is determined in the presence of 10 μM Triprolidine. Samples are incubated for four hours at room temperature (22° C.) and then read in a Microbeta Trilux.
Curves are evaluated using a 4-parameter logistic nonlinear equation to obtain the concentration of competitor causing 50% inhibition of radioligand binding (IC50). Equilibrium dissociation constants (Ki) are calculated according to the equation Ki=IC50/(1+L/Kd), where L equals the concentration of radioligand used in the experiment and Kd equals the equilibrium dissociation constant of the radioligand for the receptor, determined from standard saturation analysis or homologous competition experiments. Reported values for Ki, where n values are indicated, are shown as geometric mean±the standard error of the mean (SEM), with the number of replicate determinations indicated by n. […]

Sequence of Dopamine D3 (P35462 whole entry): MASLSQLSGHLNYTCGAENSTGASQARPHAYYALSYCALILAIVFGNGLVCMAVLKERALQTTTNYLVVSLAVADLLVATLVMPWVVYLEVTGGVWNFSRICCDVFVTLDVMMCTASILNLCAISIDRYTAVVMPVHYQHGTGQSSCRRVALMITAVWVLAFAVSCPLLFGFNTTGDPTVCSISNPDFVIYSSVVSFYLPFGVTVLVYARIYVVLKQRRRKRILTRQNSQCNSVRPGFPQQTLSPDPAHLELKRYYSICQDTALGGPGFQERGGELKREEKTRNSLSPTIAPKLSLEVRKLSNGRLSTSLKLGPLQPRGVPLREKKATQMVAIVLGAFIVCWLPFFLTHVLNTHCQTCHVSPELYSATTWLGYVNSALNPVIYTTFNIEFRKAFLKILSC

In the case of `Cc1cc2n(c1)Cc1cc(Cl)ccc1N=C2N1CCN(CC(C)(C)C(=O)O)CC1` [Example 13, 3-[4-(7-Chloro-2-methyl-5H-pyrrolo[2,1-c][1,4]benzodiazepin-11-yl)piperazin-1-yl]-2,2-dimethylpropanoic acid dihydrochloride], the Ki [1] is reported as over 4.11 µM, the Ki [2] is reported as over 5.37 µM and the Ki [3] is reported as over 5.83 µM. The Ki [4] was over 8.47 µM, the Ki [5] was over 4.8 µM and the ED50 [6] was 0.27 mg/kg. It also gave a Ki [7] of 0.0168 µM.
